These results are taken from article PMC11614110, “Crystal structure of a short-chain dehydrogenase from Burkholderia cenocepacia J2315 in complex with NADP^+ and benzoic acid” (Acta Crystallographica Section F: Structural Biology …, 2024).

Data set [1] concerns the target T1, BcSDR (short-chain dehydrogenase reductase from B. cenocepacia J2315) (Burkholderia cenocepacia, UniProt B4EFS5).
T1 construct: gene BCAM2128; vector pBG1861; expressed in E. coli BL21(DE3) R3 Rosetta; homodimer
T1 sequence (B4EFS5 1-237): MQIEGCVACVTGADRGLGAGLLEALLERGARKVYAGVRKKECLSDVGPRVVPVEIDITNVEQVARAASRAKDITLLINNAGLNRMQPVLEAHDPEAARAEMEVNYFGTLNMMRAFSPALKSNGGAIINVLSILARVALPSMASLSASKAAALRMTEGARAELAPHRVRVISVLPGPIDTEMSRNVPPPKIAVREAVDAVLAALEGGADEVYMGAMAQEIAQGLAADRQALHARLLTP
The data set is described as follows: X-ray crystal structure, […] A. The class given is binding. Conditions: pH 4.2, 290 K.

Data set [2] concerns the molecule itself. The data set is described as follows: crystal structure; sitting-drop vapor diffusion, 290 K; 23.45 mg/ml protein, 5 mM NADP+; 40% PEG 300, 100 mM sodium phosphate dibasic/citric acid pH 4.2; space group P212121, two molecules per asymmetric unit; dimer assignment supported by PDBePISA.

As for `NC(=O)c1ccc[n+]([C@@H]2O[C@H](COP(=O)(O)OP(=O)(O)OC[C@H]3O[C@@H](n4cnc5c(N)ncnc54)[C@H](OP(=O)(O)O)[C@@H]3O)[C@@H](O)[C@H]2O)c1` [NADP^+], the “X-ray crystal structure, 1.40 A” value in data set [1] (5 mM NADP+ in co-crystallization drop, coenzyme site, both chains) is reported as “The structure of BcSDR showed clear electron density for NADP^+ in the coenzyme-binding site”. With `O=C(O)c1ccccc1` [benzoic acid], in data set [1] (not added, co-purified ligand, active site, NADP+ bound), the “X-ray crystal structure, 1.40 A” value is reported as “BcSDR co-crystallized with a molecule of benzoic acid bound in the active site”.

B1: short-chain dehydrogenase reductase (SDR) from Burkholderia cenocepacia J2315 (enzyme, Burkholderia cenocepacia (strain J2315))
chain: T1 sequence (B4EFS5 1-237)
notes: putative short-chain dehydrogenase reductase, Burkholderia cenocepacia J2315, UniProt B4EFS5; full-length gene stated to encode amino acids 1-237; Crystallised with NADP+ and a benzoic acid ligand; a phosphate ion lies at the dimer interface; also called BcSDR; His-BcSDR; source: Escherichia coli BL21(DE3) R3 Rosetta, purified (Ni2+ IMAC, SEC on Superdex 75); not shown: His6, N-terminal, kept
On to B1, for which, in data set [2], the binding result is “binds”.
